We go through one compound from patent US11123434B2, “Drug delivery device and its method of manufacture” (City University of Hong Kong, priority 2017, dated 2021).

This series can be described thus: Drug release from loaded sponges at 37° C. in deionized water. In kind it is physicochemical. Conditions: comparison among model drugs MB, ORO, TH. An excerpt: To maintain constant therapeutic levels for prolonged periods and to reduce the total dose of administration, the ability of a carrier to prolong drug release is required.

As for `CN(C)[C@@H]1C(=O)C(C(N)=O)=C(O)[C@@]2(O)C(=O)C3=C(O)c4c(O)cccc4[C@@](C)(O)[C@H]3C[C@@H]12.Cl` [TH], the drug release sustainability result is “more sustainable as compared to that of ORO”.
